Several values for one entry are separate records, joined by “and”; a condition that tells them apart may be missing. Identical values can stand only once. Inconclusive results and toxic doses are left out. How the source made its calls: active means survival T/C of 150% or more; inactive means T/C below 125% in these data.
Test system: P388 leukemia ip, CD2F1 mice, survival T/C
Experiment: NCI In Vivo Anticancer Drug Screen. Data for tumor model P388 Leukemia (intraperitoneal) in CD2F1 (CDF1) mice
Details: endpoint: median survival time, higher = longer survival
Summary of the method: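 Mice carrying the transplanted tumor received test compound or vehicle. Survival was recorded in each group, and the value is the treated-group measurement divided by that of the vehicle-treated control group.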

[1] = dose: 50.0 mg/kg/injection, schedule: Q01DX009 (ip), vehicle: saline with Tween-80
[2] = dose: 60.0 mg/kg/injection, schedule: Q01DX005 (ip), vehicle: saline with Tween-80
[3] = dose: 120.0 mg/kg/injection, schedule: Q01DX005 (ip), vehicle: saline with Tween-80
[4] = dose: 240.0 mg/kg/injection, schedule: Q01DX005 (ip), vehicle: saline with Tween-80
[5] = dose: 50.0 mg/kg/injection, schedule: Q01DX009 (ip), vehicle: Klucel (hydroxypropylcellulose) (HPC)
[6] = dose: 100.0 mg/kg/injection, schedule: Q01DX009 (ip), vehicle: Klucel (hydroxypropylcellulose) (HPC)
[7] = dose: 100.0 mg/kg/injection, schedule: Q01DX009 (ip), vehicle: saline with Tween-80
[8] = dose: 200.0 mg/kg/injection, schedule: Q01DX009 (ip), vehicle: saline with Tween-80
[9] = dose: 25.0 mg/kg/injection, schedule: Q01DX009 (ip), vehicle: Klucel (hydroxypropylcellulose) (HPC)
[10] = dose: 12.5 mg/kg/injection, schedule: Q01DX009 (ip), vehicle: saline
[11] = dose: 25.0 mg/kg/injection, schedule: Q01DX009 (ip), vehicle: saline
[12] = dose: 50.0 mg/kg/injection, schedule: Q01DX009 (ip), vehicle: saline
[13] = dose: 50.0 mg/kg/injection, schedule: Q01DX005 (ip), vehicle: saline with Tween-80
[14] = dose: 100.0 mg/kg/injection, schedule: Q01DX005 (ip), vehicle: saline with Tween-80

Measured: T/C

Cc1cccc(C)c1NC(=O)NNC(N)=S
inactive: [1] 97 % of control

CC(=O)Oc1ccc(C2COc3cc(OC(C)=O)c(OC(C)=O)cc3C2)cc1 (stereo not given)
inactive: [2] 104 % of control | [3] 104 % of control | [4] 104 % of control

C1CC1C(=NN=C(C1CC1)C1CC1)C1CC1
inactive: dose: 6.25 mg/kg/injection, schedule: Q01DX009 (ip), vehicle: saline with Tween-80 102 % of control | dose: 12.5 mg/kg/injection, schedule: Q01DX009 (ip), vehicle: saline with Tween-80 101 % of control | dose: 25.0 mg/kg/injection, schedule: Q01DX009 (ip), vehicle: saline with Tween-80 96 % of control

O=CNNC(=O)C(Cl)Cl
inactive: [5] 107 % of control | [6] 107 % of control | dose: 200.0 mg/kg/injection, schedule: Q01DX009 (ip), vehicle: Klucel (hydroxypropylcellulose) (HPC) 112 % of control

O=C(O)C1C(C(=O)O)C2(Cl)C(Cl)=C(Cl)C1(Cl)C2(Cl)Cl.[Co] (stereo not given)
inactive: dose: 50.0 mg/kg/injection, schedule: Q01DX001 (ip), vehicle: saline 109 % of control | dose: 100.0 mg/kg/injection, schedule: Q01DX001 (ip), vehicle: saline 109 % of control | dose: 200.0 mg/kg/injection, schedule: Q01DX001 (ip), vehicle: saline 109 % of control

CCCCCCCCOC(=O)c1ccccc1OP(=O)(N(C)C)N(C)C
inactive: dose: 50.0 mg/kg/injection, schedule: Q01DX005 (ip), vehicle: saline 107 % of control | dose: 100.0 mg/kg/injection, schedule: Q01DX005 (ip), vehicle: saline 112 % of control | dose: 200.0 mg/kg/injection, schedule: Q01DX005 (ip), vehicle: saline 100 % of control

CCOC(=O)c1c(C)c(C(=O)OCC)n(C)c1C=O
inactive: [7] 97 % of control | [8] 97 % of control | dose: 400.0 mg/kg/injection, schedule: Q01DX009 (ip), vehicle: saline with Tween-80 96 % of control

COC(=O)C(CCC(=O)CCl)N1C(=O)c2ccccc2C1=O (stereo not given)
inactive: [9] 108 % of control | [5] 106 % of control

OCC1CC2C3CC(CO)C(C3)C2C1 (stereo not given)
inactive: [2] 105 % of control | [3] 100 % of control | [4] 98 % of control

CCOC(=O)C(/C=N/NC(N)=S)CC (stereo not given)
inactive: dose: 100.0 mg/kg/injection, schedule: Q01DX001 (ip), vehicle: saline with Tween-80 100 % of control | dose: 200.0 mg/kg/injection, schedule: Q01DX001 (ip), vehicle: saline with Tween-80 99 % of control | dose: 400.0 mg/kg/injection, schedule: Q01DX001 (ip), vehicle: saline with Tween-80 97 % of control

CC(=O)OCC1=CC2OC(=O)C3=COC(OC4OC(CO)C(O)C(O)C4O)C1C32 (stereo not given)
inactive: [10] 93 % of control | [9] 88 % of control | [11] 98 % of control | [5] 88 % of control | [12] 98 % of control | dose: 50.0 mg/kg/injection, schedule: Q04DX002 (ip), vehicle: saline 107 % of control | [6] 89 % of control | dose: 100.0 mg/kg/injection, schedule: Q04DX002 (ip), vehicle: saline 101 % of control | dose: 200.0 mg/kg/injection, schedule: Q04DX002 (ip), vehicle: saline 99 % of control

S=C(/N=N/c1[nH]c2ccccc2c1NNC(=S)NC12CC3CC(CC(C3)C1)C2)NC12CC3CC(CC(C3)C1)C2
inactive: dose: 30.0 mg/kg/injection, schedule: Q01DX005 (ip), vehicle: saline with Tween-80 96 % of control | [2] 96 % of control | [3] 87 % of control | [4] 90 % of control

CN1C(=O)NC(=O)C(C)(C2(Br)CCCCC2)C1=O (stereo not given)
inactive: dose: 100.0 mg/kg/injection, schedule: Q01DX001 (ip), vehicle: Klucel (hydroxypropylcellulose) (HPC) 106 % of control | dose: 200.0 mg/kg/injection, schedule: Q01DX001 (ip), vehicle: Klucel (hydroxypropylcellulose) (HPC) 99 % of control | dose: 400.0 mg/kg/injection, schedule: Q01DX001 (ip), vehicle: Klucel (hydroxypropylcellulose) (HPC) 99 % of control

O=C1c2cccc3c([N+](=O)[O-])ccc(c23)C(=O)N1CCCN1CCOCC1
inactive: [13] 114 % of control | [14] 116 % of control

O=C(COc1ccc(Cl)cc1)OCCN1CCCCCC1
inactive: dose: 60.0 mg/kg/injection, schedule: Q01DX005 (ip), vehicle: saline 109 % of control | dose: 120.0 mg/kg/injection, schedule: Q01DX005 (ip), vehicle: saline 110 % of control | dose: 240.0 mg/kg/injection, schedule: Q01DX005 (ip), vehicle: saline 100 % of control

CCCCCCN(CCCCCC)CC(O)c1cc(-c2ccccc2)nc2cc(Cl)ccc12 (stereo not given)
inactive: [13] 115 % of control | [14] 103 % of control | dose: 200.0 mg/kg/injection, schedule: Q01DX005 (ip), vehicle: saline with Tween-80 113 % of control

CCN(CC)Sc1cccc([N+](=O)[O-])c1
inactive: dose: 12.5 mg/kg/injection, schedule: Q01DX009 (ip), vehicle: Klucel (hydroxypropylcellulose) (HPC) 108 % of control | [9] 118 % of control | [5] 113 % of control and 119 % of control

CC1(C)OC2OC(C3COC(=S)O3)C(O)C2O1 (stereo not given)
inactive: dose: 50.0 mg/kg/injection, schedule: Q01DX005 (ip), vehicle: Klucel (hydroxypropylcellulose) (HPC) 98 % of control | dose: 100.0 mg/kg/injection, schedule: Q01DX005 (ip), vehicle: Klucel (hydroxypropylcellulose) (HPC) 99 % of control | dose: 200.0 mg/kg/injection, schedule: Q01DX005 (ip), vehicle: Klucel (hydroxypropylcellulose) (HPC) 103 % of control

CN=C/C(C(C)=O)=C(\C)O
inactive: [10] 103 % of control | [11] 105 % of control | [12] 101 % of control and 106 % of control | dose: 100.0 mg/kg/injection, schedule: Q01DX009 (ip), vehicle: saline 112 % of control and 91 % of control

O=C1C(c2ccccc2)=C(c2ccccc2)C2(c3ccccc3)C=NNC12c1ccccc1 (stereo not given)
inactive: dose: 6.25 mg/kg/injection, schedule: Q01DX005 (ip), vehicle: Klucel (hydroxypropylcellulose) (HPC) 95 % of control | dose: 12.5 mg/kg/injection, schedule: Q01DX005 (ip), vehicle: Klucel (hydroxypropylcellulose) (HPC) 92 % of control

Cc1cc(OCC(=O)N/N=C/c2ccc(N(CCCl)CCCl)cc2)c2c(=O)c3ccccc3oc2c1
inactive: dose: 60.0 mg/kg/injection, schedule: Q01DX005 (ip), vehicle: Klucel (hydroxypropylcellulose) (HPC) 94 % of control | dose: 120.0 mg/kg/injection, schedule: Q01DX005 (ip), vehicle: Klucel (hydroxypropylcellulose) (HPC) 117 % of control | dose: 240.0 mg/kg/injection, schedule: Q01DX005 (ip), vehicle: Klucel (hydroxypropylcellulose) (HPC) 88 % of control

CC1(C)COCN1CN1COCC1(C)C
inactive: dose: 0.78 mg/kg/injection, schedule: Q04DX003 (ip), vehicle: saline 100 % of control | dose: 1.56 mg/kg/injection, schedule: Q04DX003 (ip), vehicle: saline 101 % of control | dose: 3.13 mg/kg/injection, schedule: Q04DX003 (ip), vehicle: saline 100 % of control | dose: 12.5 mg/kg/injection, schedule: Q04DX003 (ip), vehicle: saline 111 % of control | dose: 25.0 mg/kg/injection, schedule: Q04DX003 (ip), vehicle: saline 102 % of control | dose: 50.0 mg/kg/injection, schedule: Q04DX003 (ip), vehicle: saline 120 % of control | dose: 100.0 mg/kg/injection, schedule: Q04DX003 (ip), vehicle: saline 123 % of control | dose: 200.0 mg/kg/injection, schedule: Q04DX003 (ip), vehicle: saline 107 % of control

Oc1ccc2ccccc2c1/C=N\Sc1ccc(Cl)cc1
inactive: [1] 90 % of control | [7] 91 % of control | [8] 96 % of control

CCCCCCC(=O)Oc1ccc[nH]c1=O
inactive: dose: 25.0 mg/kg/injection, schedule: Q01DX009 (ip), vehicle: distilled water + Tween-80 104 % of control | dose: 50.0 mg/kg/injection, schedule: Q01DX009 (ip), vehicle: distilled water + Tween-80 100 % of control | dose: 100.0 mg/kg/injection, schedule: Q01DX009 (ip), vehicle: distilled water + Tween-80 97 % of control | dose: 200.0 mg/kg/injection, schedule: Q01DX009 (ip), vehicle: distilled water + Tween-80 100 % of control | dose: 400.0 mg/kg/injection, schedule: Q01DX009 (ip), vehicle: distilled water + Tween-80 100 % of control

CCOC(=O)C1(C)Sc2ccccc2N=C1c1ccccc1 (stereo not given)
inactive: dose: 60.0 mg/kg/injection, schedule: Q01DX005 (ip), vehicle: saline + Tween-80 + alcohol 98 % of control | dose: 120.0 mg/kg/injection, schedule: Q01DX005 (ip), vehicle: saline + Tween-80 + alcohol 93 % of control | dose: 240.0 mg/kg/injection, schedule: Q01DX005 (ip), vehicle: saline + Tween-80 + alcohol 89 % of control

From PubChem BioAssay AID330 (DTP/NCI, 2004)
